{"source": "patent US20150306167A1", "about": "“ALPINIA SPP. EXTRACTS FOR TREATING IRRITABLE BOWEL SYNDROME” (MEDICAL AND PHARMACEUTICAL INDUSTRY TECHNOLOGY AND …, priority 2012, published 2015)", "key": {"[1]": {"system": "5-HTP induced visceral hypersensitivity (AWR)", "assay": "Visceral hypersensitivity by behavioral response, AWR score after 5-HTP", "assay_type": "in vivo, Male Sprague-Dawley rats", "conditions": "for AWR score: body arching and lifting of pelvic structures / AWR score: lifting abdomen / AWR scores compared with control rats: 5-HTP rats; for anti-abdominal pain activity (or anti-visceral hypersensitivity): purified compounds from Alpinia oxyphylla", "method": "Animal Model for Evaluating Chronic Visceral Hypersensitivity by Measuring […] Withdrawal Reflex (AWR)\nIn this model, behavioral response was studied by measuring the AWR, which is an involuntary motor reflex similar to visceromotor reflex. The AWR was graded with the intensity of stimulus.\nMale Sprague-Dawley rats (BioLASCO Taiwan Co., Ltd., Taiwan) were kept in an air-conditioned animal shelter at room temperature of 22° C. to 24° C. with controlled level of humidity (40% to 50%) in a 12-hour light-dark cycle. Each rat weighed between 200 to 350 g in the beginning of the test. Tap water and standard laboratory rodent chow were provided ad libitum. Unless specifically indicated, each group included 6 rats, and experiments were conducted without fasting the animals. The plant extracts and positive control drugs were given to the animals either orally or intraperitoneally.\nBehavioral studies were assessed in according to previously described procedures (AL-CHAER et al., Gastroenterology 2000, 119:1276-1285). Briefly, the rats were then housed in small Lucite cubicles (20×8×8 cm) on an elevated Plexiglas platform and allowed to wake up and adapt (1 hr). Animal was injected subcutaneously with a dose of 5-HTP (10 mg/kg) to induce visceral hypersensitivity, and behavioral response was studied by measuring the AWR. Measurement of the AWR consisted of visual observation of the animal response by blinded observers and assignments of an AWR score: 0, no behavioral response; 1, brief head movement followed by immobility; 2, mild contraction of abdominal muscles without lifting the abdomen off the platform; 3, strong contraction of the abdominal muscles and lifting abdomen off the platform; 4, severe contraction of the abdominal muscle manifested by body arching and lifting of pelvic structures. Behavioral measurements were repeated by two different blinded observers.\n(§1) All results are expressed as means±STD; n refers to animals in each group. Differences between animals of each group were compared by one-way\n(§2) ANOVA followed by Dunnett's t test. A p value less than or equal to 0.05 was considered to be statistically significant."}, "[2]": {"system": "5-HTP induced diarrhea and/or abnormal defecation", "assay": "5-HTP induced diarrhea and/or abnormal defecation animal model", "assay_type": "in vivo, Male ICR mice", "conditions": "for 5-HTP induced diarrhea (diarrhea score): FIG. 12A; for 5-HTP induced diarrhea (diarrhea score) / number of stools excreted: N=5 mice/group; for number of stools excreted: FIG. 12B, in 30 min; for anti-abnormal defecation effect / activity: purified compounds from Alpinia oxyphylla", "method": "Animal Model for Evaluating 5-HTP Induced Diarrhea and/or Abnormal Defecation\nMale ICR mice (BioLASCO Taiwan Co., Ltd., Taiwan) were kept in an air-conditioned animal shelter at room temperature of 22° C. to 24° C. with controlled level of humidity (40% to 50%) in a 12-hour light-dark cycle. Each mouse weighed between 30 to 34 g in the beginning of the test. Tap water and standard laboratory rodent chow were provided ad libitum.\n[…], and each mice in the test group was given two doses of the Alpinia spp. extract of this invention (i.e., 500 mg/kg, 1,000 mg/kg, or 2,000 mg/kg) orally on day 1, and a third dose on day 2; and one dose of 5-HTP (i.p., 10 mg/kg) just 60 minutes after the administration of the third dose of the Alpinia spp. extract. In some occasions, the Alpinia spp. extracts of this invention were given intraperitoneally instead of orally. For comparison purpose, loperamide hydrochloride (oral; 2 mg/kg), ondansteron hydrochloride (oral; 2 mg/kg) or graniserton hydrochloride (oral; 2 mg/kg) were given once respectively to the control animals just 30 minutes prior to the administration of 5-HTP. Thirty minutes after 5-HTP injection, defecation of each animal was observed, with number of stools excreted for 30 min and diarrhea score respectively recorded accordingly. The diarrhea score was designed to describe consistency of stool using an arbitrary score scale from 0 to 3, with 0 representing solid form of stool, 1 representing loose form of stool, 2 representing partially liquid-like form of stool, and 3 representing watery form of stool.\nas §1, §2"}, "IBS patients": {"system": "IBS patients", "conditions": "reported, cited from earlier work"}}}
{"smiles": "CN1C2CCCC1CC(NC(=O)c1nn(C)c3ccccc13)C2", "note": "(stereo not shown) [Granisetron, granisetron, reference compound]", "values": [{"measurement": "AWR score: body arching and lifting of pelvic structures", "setting": "[1]; 100 μg/kg i.p., n = 1, Table 1", "value": 1.90}, {"measurement": "AWR score: lifting abdomen", "setting": "[1]; 100 μg/kg i.p., n = 1, Table 1", "value": 2.80}]}
{"smiles": "C=C(C)[C@]1(O)CC[C@]2(C)CC(=O)C=C(C)[C@H]2C1", "note": "[PDC-2453, 7-epi-teucrenone]", "values": [{"measurement": "5-HTP induced diarrhea (diarrhea score)", "setting": "[2]", "value": "capable of suppressing 5-HTP induced diarrhea"}, {"measurement": "number of stools excreted", "setting": "[2]", "value": "reducing the number of stools excreted"}, {"measurement": "anti-abnormal defecation effect / activity", "setting": "[2]", "value": "possess anti-abnormal defecation activity"}]}
{"smiles": "CC(C)[C@@H]1CCC(=O)C2=C1[C@H](O)[C@](C)(O)CC2", "note": "[PDC-2454, Oxyphellenodiol A]", "values": [{"measurement": "5-HTP induced diarrhea (diarrhea score)", "setting": "[2]", "value": "capable of suppressing 5-HTP induced diarrhea"}, {"measurement": "number of stools excreted", "setting": "[2]", "value": "reducing the number of stools excreted"}, {"measurement": "anti-abnormal defecation effect / activity", "setting": "[2]", "value": "possess anti-abnormal defecation activity"}]}
{"smiles": "C=C(C)[C@@H]1CC[C@]2(C)CCC(=O)C(C)=C2[C@H]1O", "note": "[PDC-2460, 6-α-hydroxy-7-epi-α-cyperone]", "values": [{"measurement": "5-HTP induced diarrhea (diarrhea score)", "setting": "[2]", "value": "capable of suppressing 5-HTP induced diarrhea"}, {"measurement": "number of stools excreted", "setting": "[2]", "value": "reducing the number of stools excreted"}, {"measurement": "anti-abnormal defecation effect / activity", "setting": "[2]", "value": "possess anti-abnormal defecation activity"}]}
{"smiles": "C=C(C)[C@@]1(O)CC[C@]2(C)CC(=O)C=C(C)[C@H]2C1", "note": "[PDC-2464, Teucrenone]", "values": [{"measurement": "5-HTP induced diarrhea (diarrhea score)", "setting": "[2]", "value": "capable of suppressing 5-HTP induced diarrhea"}, {"measurement": "number of stools excreted", "setting": "[2]", "value": "reducing the number of stools excreted"}, {"measurement": "anti-abnormal defecation effect / activity", "setting": "[2]", "value": "possess anti-abnormal defecation activity"}, {"measurement": "AWR score: body arching and lifting of pelvic structures", "setting": "[1]; 5 mg/kg i.p., Table 3", "value": "1.75 ± 0.16"}, {"measurement": "AWR score: lifting abdomen", "setting": "[1]; 5 mg/kg i.p., Table 3", "value": "1.60 ± 0.11"}, {"measurement": "AWR scores compared with control rats", "setting": "[1]", "value": "significantly lower"}, {"measurement": "anti-abdominal pain activity (or anti-visceral hypersensitivity)", "setting": "[1]", "value": "proved to possess anti-abdominal pain activity"}]}
{"smiles": "COc1cc(O)c2c(=O)cc(-c3ccccc3)oc2c1", "note": "[PDC-2521, Tectochrysin]", "values": [{"measurement": "anti-abnormal defecation effect / activity", "setting": "[2]", "value": "possess anti-abnormal defecation activity"}]}
{"smiles": "COc1cc(O)c2c(=O)c(O)c(-c3ccccc3)oc2c1", "note": "[PDC-2524, Isalpinin]", "values": [{"measurement": "AWR score: body arching and lifting of pelvic structures", "setting": "[1]; 2.5 mg/kg i.p., Table 3", "value": "2.40 ± 0"}, {"measurement": "AWR score: lifting abdomen", "setting": "[1]; 2.5 mg/kg i.p., Table 3", "value": "2.27 ± 0.06"}, {"measurement": "AWR score: body arching and lifting of pelvic structures", "setting": "[1]; 5 mg/kg i.p., Table 3", "value": "2.10 ± 0"}, {"measurement": "AWR score: lifting abdomen", "setting": "[1]; 5 mg/kg i.p., Table 3", "value": "1.87 ± 0.06"}, {"measurement": "AWR score: body arching and lifting of pelvic structures", "setting": "[1]; 10 mg/kg i.p., n = 1, Table 3", "value": 1.60}, {"measurement": "AWR score: lifting abdomen", "setting": "[1]; 10 mg/kg i.p., n = 1, Table 3", "value": 1.20}, {"measurement": "AWR scores compared with control rats", "setting": "[1]", "value": "significantly lower"}, {"measurement": "anti-abdominal pain activity (or anti-visceral hypersensitivity)", "setting": "[1]", "value": "proved to possess anti-abdominal pain activity"}]}
{"smiles": "Cc1[nH]cnc1CN1CCc2c(c3ccccc3n2C)C1=O", "note": "[alosetron]", "values": [{"measurement": "IBS patients with improved clinical symptoms", "setting": "IBS patients", "value": "about 50%"}, {"measurement": "IBS patients with side effects such as constipation and ischemia colitis", "setting": "IBS patients", "value": "30-35%"}]}
{"smiles": "[H]/N=C(/NCCCCC)N/N=C/c1c[nH]c2ccc(OC)cc12", "note": "[tegaserod]", "values": [{"measurement": "therapeutic effects on IBS", "setting": "IBS patients", "value": "limited therapeutic effects on IBS"}, {"measurement": "risk of IBS patients in developing cardiovascular diseases", "setting": "IBS patients; retracted from the market in 2007", "value": "increases significantly"}]}
